According to article PMC3211034, “Optimal Production and Biochemical Properties of a Lipase from Candida albicans” (International Journal of Molecular Sciences, 2011):

Experiments:
[1] = biological target: T1, CaLIP10 (lipase 10 from Candida albicans; product of lip10-dm) (Candida albicans, UniProt Q9P4E5); assay: spectrophotometric release of p-nitrophenol at […] nm; format: biochemical; conditions: 2 mM substrate, 50 mM Tris-HCl pH 8.0, 25 °C
T1 construct: mature protein without signal peptide, cloned from genomic DNA; CTG-Ser codons 210 and 378 recoded to TCT, so the product keeps native Ser210 and Ser378 (no amino-acid change); secreted from Pichia pastoris X33 with pGAPZalphaA; about 50 kDa by SDS-PAGE

[2] = biological target: T1, CaLIP10 (lipase 10 from Candida albicans; product of lip10-dm); assay: clear zone on tributyrin-emulsion YPD plates, secreting P. pastoris transformants; format: cell-based; conditions: 1% tributyrin emulsion; X-33 and empty-vector control

T1 sequence (Q9P4E5 17-465): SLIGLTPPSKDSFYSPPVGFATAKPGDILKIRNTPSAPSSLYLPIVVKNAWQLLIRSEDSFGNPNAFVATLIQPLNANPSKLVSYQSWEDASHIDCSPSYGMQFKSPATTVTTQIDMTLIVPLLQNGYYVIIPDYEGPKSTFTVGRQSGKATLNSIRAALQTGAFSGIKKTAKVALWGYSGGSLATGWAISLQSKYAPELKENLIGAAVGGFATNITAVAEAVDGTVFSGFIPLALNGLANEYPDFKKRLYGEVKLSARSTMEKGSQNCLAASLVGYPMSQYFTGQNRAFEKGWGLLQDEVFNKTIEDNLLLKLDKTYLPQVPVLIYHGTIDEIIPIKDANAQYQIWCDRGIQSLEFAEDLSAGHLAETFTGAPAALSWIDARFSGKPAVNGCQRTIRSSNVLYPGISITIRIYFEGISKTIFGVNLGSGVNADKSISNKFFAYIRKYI

SMILES | spectrophotometric release of p-nitrophenol at 405 nm [1] | clear zone on tributyrin-emulsion YPD plates, secreting P. pastoris transformant [2]
CCCCCCCC(=O)Oc1ccc([N+](=O)[O-])cc1 [p-nitrophenol caprylate] | The lipase activity was determined spectrophotometrically using p-nitrophenol caprylate as substrate. | –
CCCC(=O)OCC(COC(=O)CCC)OC(=O)CCC [tributyrin] | – | a clear zone was formed around wild type lip10 and mutated lip10-dm
